# Assay results taken from patent publication US9833423B2 (KOREA RESEARCH INSTITUTE OF CHEMICAL TECHNOLOGY, priority 2011, dated 2017).
# Assays:
# [1] = test system: 48 rhinovirus types and coxsackievirus A21, B3, enterovirus 70 and echovirus 11; details: cited from earlier work
# [2] = cited from earlier work
# in vitro = details: human, CC50
# Entero-virus 70 = experiment: Cytopathic effect (CPE) inhibition assay; assay type: cell-based, Enterovirus 70; details: Enterovirus D, MRC5, 48 h; Table 3; MRC-5, 37° C., 2 days
# Coxsackie-virus B1 = experiment: Cytopathic effect (CPE) inhibition assay; assay type: cell-based, Coxsackievirus B1; details: Enterovirus B, HeLa37, 48 h; Table 3; HeLa, 37° C., 2 days; read-out: EC50 Coxsackie-virus B1
# Coxsackie-virus B3 = experiment: Cytopathic effect (CPE) inhibition assay; assay type: cell-based, Coxsackievirus B3; details: Enterovirus B, HeLa37, 48 h; Table 3; HeLa, 37° C., 2 days; read-out: EC50 Coxsackie-virus B3
# Rhino 89 = experiment: Multicycle CPE reduction assay; assay type: cell-based, rhinovirus 89; details: Enterovirus; 37° C. in HeLa cells
# Protocol: (§1) The test compounds were evaluated for anti-picornavirus activity by a multicycle cytopathic effect (CPE) reduction assay. The antiviral activity was initially determined using an MTS [3-(4,5-dimethylthiazol-2-yl)-5-(3-carboxymethoxyphenyl)-2-(4-sulfophenyl)-2H-tetrazolium]-based CPE reduction assay.
# (§2) In this regard, cells grown to confluence in 96-well plates were infected with 100 50% cell culture infective doses (CCID50) of virus. After an adsorption period of 2 hrs at 37° C., virus was removed and serial dilutions of the compounds were added. […] After removal of the medium, 90 μl of a culture medium and 10 μl of MTS-phenazine methosulfate (Promega, Leiden, The Netherlands) were added to each well. After an incubation period of 2 hrs at 37° C., the optical density (OD) of each well was read at 498 nm in a microplate reader.
# (§3) CPE values for evaluating antiviral activity were calculated using the following Mathmatic Formula 3: […]
# (§4) The 50% effective concentration (EC50) and the 50 cytotoxic concentration (CC50) were defined as the concentrations of compound that offered 50% protection against virus-induced CPE and that killed cells by 50%, respectively, and were calculated using logarithmic interpolation.
# Rhino 72 = experiment: Multicycle CPE reduction assay; assay type: cell-based, rhinovirus 72; details: Enterovirus; 37° C. in HeLa cells
# Protocol: as §1, §2, §3, §4
# Coxsackie A21 = experiment: Multicycle CPE reduction assay; assay type: cell-based, Coxsackievirus A21; details: Enterovirus C, A21, MRC5, read-out: Coxsackie A21 EC50
# Rhino 15 = experiment: Multicycle CPE reduction assay; assay type: cell-based, rhinovirus 15; details: Enterovirus; 37° C. in HeLa cells
# Protocol: as §1, §2, §3, §4
# Rhino 45 = experiment: Multicycle CPE reduction assay; assay type: cell-based, rhinovirus 45; details: Enterovirus, HeLa, 37° C. in HeLa cells
# Protocol: as §1, §2, §3, §4
# Echo 11 = experiment: Multicycle CPE reduction assay; assay type: cell-based, echovirus 11; details: Enterovirus B; 37° C. in BGM cells
# Protocol: as §1, §2, §3, §4
# Polio-virus 3 = experiment: microbe, parasite or virus in culture; assay type: cell-based, Poliovirus 3; details: Enterovirus C, HeLa37, 48 h, read-out: EC50 Polio-virus 3
# Coxsackie B3 = experiment: Multicycle CPE reduction assay; assay type: cell-based, Coxsackievirus B3; details: Enterovirus B, 37° C. in Vero cells
# Protocol: as §1, §2, §3, §4
# [3] = test system: coxsackieviruses B3, A16, A9, and A21; experiment: Multicycle CPE reduction assay, text summary; assay type: cell-based; details: Table 5; read-out: EC50 against coxsackieviruses B3, A16, A9, and A21
# Protocol: as §1, §2, §3, §4
# Rhino 70 = experiment: Multicycle CPE reduction assay; assay type: cell-based, rhinovirus 70; details: Enterovirus, HeLa, read-out: Rhino 70 EC50, 37° C. in HeLa cells
# Protocol: as §1, §2, §3, §4
# Echo 9 = experiment: Multicycle CPE reduction assay; assay type: cell-based, echovirus 9; details: Enterovirus B, MRC5; 37° C. in MRC-5 cells
# Protocol: as §1, §2, §3, §4
# Rhino 85 = experiment: Multicycle CPE reduction assay; assay type: cell-based, rhinovirus 85; details: Enterovirus; 37° C. in HeLa cells
# Protocol: as §1, §2, §3, §4
# Rhino 63 = experiment: Multicycle CPE reduction assay; assay type: cell-based, rhinovirus 63; details: Enterovirus; 37° C. in HeLa cells
# Protocol: as §1, §2, §3, §4
# Rhino 41 = experiment: Multicycle CPE reduction assay; assay type: cell-based, rhinovirus 41; details: Enterovirus; 37° C. in HeLa cells
# Protocol: as §1, §2, §3, §4
# Polio 1 = experiment: microbe, parasite or virus in culture; assay type: cell-based, poliovirus 1; details: Enterovirus C, BGM, read-out: Polio 1 EC50
# Coxsackie-virus A24 (HG) = experiment: Cytopathic effect (CPE) inhibition assay; assay type: cell-based, Coxsackievirus A24; details: Enterovirus C, MRC5, 48 h; Table 3; MRC-5, 37° C., 2 days
# uninfected cell cultures = experiment: Cytotoxicity (CC50), MTS-based multicycle CPE reduction assay, Experimental Example 2; assay type: cell-based; details: Table 5, listed as Ex. 19
# Protocol: as §1, §2
# (§5) CPE values for evaluating cytotoxicity were calculated using the following Mathmatic Formula 4: […]
# as §4
# [4] = as above; assay type: cell-based; details: Table 5
# Protocol: as §1, §2, §5, §4
# Rhino 29 = experiment: Multicycle CPE reduction assay; assay type: cell-based, rhinovirus 29; details: Enterovirus; 37° C. in HeLa cells
# Protocol: as §1, §2, §3, §4
# Rhino 86 = experiment: Multicycle CPE reduction assay; assay type: cell-based, rhinovirus 86; details: Enterovirus; 37° C. in HeLa cells
# Protocol: as §1, §2, §3, §4
# Rhino 9 = experiment: Multicycle CPE reduction assay; assay type: cell-based, rhinovirus 9; details: Enterovirus; 37° C. in HeLa cells
# Protocol: as §1, §2, §3, §4
# Entero 71 = experiment: Multicycle CPE reduction assay; assay type: cell-based, enterovirus 71; details: Enterovirus A; 37° C. in RD cells
# Protocol: as §1, §2, §3, §4
# Rhino 42 = experiment: Multicycle CPE reduction assay; assay type: cell-based, rhinovirus 42; details: Enterovirus; 37° C. in HeLa cells
# Protocol: as §1, §2, §3, §4
# Polio 3 = experiment: microbe, parasite or virus in culture; assay type: cell-based, poliovirus 3; details: Enterovirus C, BGM, read-out: Polio 3 EC50
# Rhino 39 = experiment: Multicycle CPE reduction assay; assay type: cell-based, rhinovirus 39; details: Enterovirus; 37° C. in HeLa cells
# Protocol: as §1, §2, §3, §4
# Rhino 2 = experiment: Multicycle CPE reduction assay; assay type: cell-based, rhinovirus 2; details: Enterovirus; 37° C. in HeLa cells
# Protocol: as §1, §2, §3, §4
# Coxsackie A16 = experiment: Multicycle CPE reduction assay; assay type: cell-based, Coxsackievirus A16; details: Enterovirus A, A16, MRC5; 37° C. in MRC-5 cells
# Protocol: as §1, §2, §3, §4
# Rhino 14 = experiment: Multicycle CPE reduction assay; assay type: cell-based, rhinovirus 14; details: Enterovirus; 37° C. in HeLa cells
# Protocol: as §1, §2, §3, §4
# [5] = Cytotoxicity (CC50) in mock-infected cells, MTT assay, Experimental Example 1; details: human
# Polio-virus 2 = experiment: microbe, parasite or virus in culture; assay type: cell-based, Poliovirus 2; details: Enterovirus C, read-out: EC50 Polio-virus 2
# Coxsackie-virus B4 = experiment: Cytopathic effect (CPE) inhibition assay; assay type: cell-based, Coxsackievirus B4; details: Enterovirus B, HeLa37, 48 h; Table 3; HeLa, 37° C., 2 days
# Coxsackie-virus A24 (DN) = experiment: Cytopathic effect (CPE) inhibition assay; assay type: cell-based, Coxsackievirus A24; details: Enterovirus C, MRC5, 48 h; Table 3; MRC-5, 37° C., 2 days
smiles,measurement,setting,value
CCOC(=O)/C=C/[C@H](C[C@@H]1CCNC1=O)NC(=O)[C@@H](CC(=O)[C@@H](NC(=O)c1cc(C)on1)C(C)C)Cc1ccc(F)cc1 [AG 7088],concentration range with an effect in the cell culture,[1],nanomolar concentration range
CC(C)S(=O)(=O)n1c(N)nc2ccc(/C(=N/O)c3ccccc3)cc21 [Enviroxime],therapeutic effects in clinical studies,[2]; clinical studies,insignificant or few therapeutic effects
same,pharmacokinetics in clinical studies,[2]; in vivo,bad
same,side effects in clinical studies,[2]; in vivo,unwanted side effects
"CC(=O)Oc1cc(Cl)ccc1C1(OC(C)=O)C(=O)c2ccccc2C1=O [Example 3, 2-(2-Acetoxy-1,3-dioxo-2,3-dihydro-1H-inden-2-yl)-5-chlorophenyl acetate]",CC50,in vitro,50.7 µg/mL
same,melting point,,148 to 150 °C
same,EC50,Entero-virus 70,0.013 µg/mL
"CCc1ccc(C2(OC(C)=O)C(=O)c3ccccc3C2=O)c(OC(C)=O)c1 [Example 6, 2-(2-Acetoxy-1,3-dioxo-2,3-dihydro-1H-inden-2-yl)-5-ethylphenyl acetate]",EC50,Coxsackie-virus B1,< 0.01 µg/mL
same,CC50,in vitro,23.5 µg/mL
same,melting point,,136 to 137 °C
same,EC50,Coxsackie-virus B3,0.035 µg/mL
same,EC50,Entero-virus 70,< 0.01 µg/mL
"CC(=O)Oc1cc(C(C)C)ccc1C1(OC(C)=O)C(=O)c2ccccc2C1=O [Example 19, Acetic acid 2-(2-acetoxy-4-isopropyl-phenyl)-1,3-dioxo-indan-2-yl ester]",EC50,Rhino 89,> 50000 nM
same,EC50,Rhino 72,4600 ± 92 nM
same,EC50,Coxsackie A21,670 ± 130 nM
same,EC50,Rhino 15,> 50000 nM
same,EC50,Rhino 45,4600 ± 8.3 nM
same,EC50,Echo 11,17 ± 7.8 nM
same,EC50,Polio-virus 3,< 1 µg/mL
same,EC50,Coxsackie B3,< 10 nM
same,EC50,Coxsackie-virus B1,< 0.01 µg/mL
same,CC50,in vitro,17.7 µg/mL
same,EC50,[3],10 nM
same,EC50,Rhino 70,2000 ± 120 nM
same,EC50,Echo 9,17 ± 6.7 nM
same,EC50,Rhino 85,> 50000 nM
same,EC50,Rhino 63,> 50000 nM
same,EC50,Rhino 41,> 50000 nM
same,EC50,Polio 1,790 ± 360 nM
same,EC50,Coxsackie-virus A24 (HG),< 1 µg/mL
same,CC50,uninfected cell cultures,> 100000 nM
same,CC50 at 3 days,[4],≥ 100000 nM
same,EC50,Rhino 29,> 50000 nM
same,EC50,Rhino 86,26000 ± 18000 nM
same,EC50,Rhino 9,> 50000 nM
same,melting point,,136 to 137 °C
same,EC50,Coxsackie-virus B3,< 0.01 µg/mL
same,EC50,Entero 71,100 ± 1.8 nM
same,EC50,Rhino 42,> 50000 nM
same,EC50,Polio 3,< 1000 nM
same,EC50,Rhino 39,> 50000 nM
same,EC50,Rhino 2,> 50000 nM
same,EC50,Coxsackie A16,64 ± 10 nM
same,EC50,Rhino 14,450 ± 410 nM
same,EC50,Entero-virus 70,< 0.01 µg/mL
"CC(C)c1ccc(C2(OC(=O)N(C)C)C(=O)c3ccccc3C2=O)c(OC(=O)N(C)C)c1 [Example 31, Dimethyl-carbamic acid 2-(2-dimethylcarbamoyloxy-1,3-dioxo-indan-2-yl)-5-isopropyl-phenyl ester]",CC50,[5],> 100 µg/mL
same,melting point,,203 to 205 °C
"CCCCC(=O)NC1(c2ccc(C(C)C)cc2OC(=O)CCCC)C(=O)c2ccccc2C1=O [Example 49, 2-(1,3-Dioxo-2-pentanamido-2,3-dihydro-1H-inden-2-yl)-5-isopropylphenyl pentanoate]",EC50,Polio-virus 2,< 1 µg/mL
same,EC50,Coxsackie-virus B4,< 0.01 µg/mL
same,EC50,Polio-virus 3,< 1 µg/mL
same,EC50,Coxsackie-virus B1,< 0.01 µg/mL
same,CC50,in vitro,> 100 µg/mL
same,EC50,Coxsackie-virus A24 (DN),< 1 µg/mL
same,EC50,Coxsackie-virus A24 (HG),< 1 µg/mL
same,EC50,Coxsackie-virus B3,< 0.01 µg/mL
